Measured values taken from US8652804B2, “Transcription factor-based biosensors for detecting dicarboxylic acids” (priority 2011, dated 2014).

Legend:
[1] = target: PcaR transcription factor (Pseudomonas putida, UniProt Q52154); settings: for biosensor response (OD600 increase / tetracycline resistance) in words: plasmids S3/S2, 25 μg/ml tetracycline, 12 hours growth; for linear response range: plasmids S3/S2, E. coli K12, tetracycline medium, 12 hours, exogenously added dicarboxylic acid; for dynamic range (maximum difference in OD600 between fully induced samples and samples without dicarboxylic acid), ranking in words: plasmids S3/S2, compared among the four dicarboxylic acids
PcaR transcription factor, sequence (Q52154 whole entry L6P/V7A/D9E/P10S/V11A/P15S/S20A/A21P/M23L/S96T/G197D/H210N/P212A): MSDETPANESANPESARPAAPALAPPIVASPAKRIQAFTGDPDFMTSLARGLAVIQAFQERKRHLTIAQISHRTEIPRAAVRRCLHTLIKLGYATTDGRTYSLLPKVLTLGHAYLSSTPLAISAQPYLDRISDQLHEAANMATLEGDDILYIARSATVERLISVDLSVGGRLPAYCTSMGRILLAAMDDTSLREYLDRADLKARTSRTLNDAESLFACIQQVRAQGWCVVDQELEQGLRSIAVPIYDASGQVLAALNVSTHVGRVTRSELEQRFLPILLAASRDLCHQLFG
Description: The X-axis is the concentration of exogenous dicarboxylic acid supplemented to the growth medium; the Y-axis is the cell culture density (OD600) after 12 hours growth in medium supplemented with 25 μg/ml tetracycline. E. coli strain “PcaR (+)” comprises plasmids S3/S2 and produces the tetracycline resistance protein upon exogenous addition of dicarboxylic acids. E. coli strain “PcaR (−)” comprises plasmids S1/S2 and produces a negative control protein, PcaI, upon exogenous addition of the indicated dicarboxylic acids.
Three plasmids were used to characterize biosensor response to exogenously added butanedioic acid, pentanedioic acid, hexanedioic acid and heptanedioic acid. The constructed plasmids employ the beta-keto hexanedioic acid and hexanedioic responsive transcription factor, PcaR, and the PcaR-responsive promoters, PPcaR (SEQ ID NO: 16) and PPcaIJ (SEQ ID NO:17), from Pseudomonas putida. Plasmid 51 harbors the P. putida gene pcaI under transcriptional control of it native PPcaIJ promoter on an E. coli vector backbone with ampicillin resistance marker and ColE1 origin of replication. Plasmid S3 harbors the tetA tetracycline resistance gene under control of the PcaIJ promoter on an E. coli vector backbone with ampicillin resistance marker and ColE1 origin of replication. Plasmid S2 harbors the pcaR transcription factor gene under control of its native PPcaR promoter on an E. coli vector backbone comprising a chloramphenicol resistance marker and pSC101 origin of replication.
E. coli strain K12 was co-transformed with either plasmids S1/S2 or S3/S2 and individual colonies isolated from LB agar plates (Cb^50, Cm^50). Colonies were grown in 25 ml LB broth (Cb^50, Cm^50) until reaching an optical density at 600 nm (OD600) of approximately 0.50, at which point cell stocks were prepared and stored at −80° C.; cell stocks were comprised of 0.5 ml cell culture and 0.5 ml of a 50% v/v glycerol solution.
Biosensor experiments were performed with butanedioic acid, pentanedioic acid, hexanedioic acid, and heptanedioic acid. An aliquot of biosensor cell stock was thawed and used to inoculate 50 ml of LB medium (Cb^50, Cm^50) in a 250 ml, baffled Erlenmeyer flask. Cultures were incubated for 2 hours at 37° C.; subsequently, 0.6 ml biosensor culture was added to 48-well plates prepared with 2.3 ml LB medium (Cb^50, Cm^50) supplemented with tetracycline and dicarboxylic acid at the desired concentration (n=4). Plates were than grown at 30° C. on an orbital titer plate shaker (Lab Line Instruments). Following 12 hours incubation, 200 μl samples were taken for OD600 measurement (Tecan Ultra).

[2] = tested on: E. coli DcuS-DcuR two-component system; settings: plasmid S4 (PDctA-tetA), E. coli K12, 25 μg/ml tetracycline, 12 hours, exogenously added acid
Description: This example describes a dicarboxylic acid-responsive two-component system of the invention comprised of the E. coli DcuS-DcuR proteins expressed in a wild type E. coli K12 host.
(§1) E. coli strain K12 was transformed with plasmids S4, S5, or S6 and individual colonies isolated from LB agar plates (Cb^50). Colonies were grown in 25 ml LB broth (Cb^50) until reaching an optical density at 600 nm (OD600) of approximately 0.50, at which point cell stocks were prepared and stored at −80° C.; cell stocks comprised 0.5 ml cell culture and 0.5 ml of 50% v/v glycerol in water.
(§2) Biosensor experiments were performed with butanedioic acid. An aliquot of biosensor cell stock was thawed and used to inoculate 50 ml of LB medium (Cb^50) in a 250 ml, baffled Erlenmeyer flask. […] Plates were grown at 30° C. on an orbital titer plate shaker (Lab Line Instruments). Following 12 hours incubation, 200 μl samples were taken for OD600 measurement (Tecan Ultra).

[3] = tested on: E. coli DcuS-DcuR two-component system; settings: plasmids S5 (PDcuB#21) or S6 (PDcuB#22), 25 μg/ml tetracycline
Description: as §1, §2

| Compound | biosensor response (OD600 increase / tetracycline resistance) in words [1] | linear response range [1] [mM] | dynamic range of biosensor response [2] | growth of biosensor cultures versus acid concentration, in words [3] | dynamic range (maximum difference in OD600 between fully induced samples and samples without dicarboxylic acid), ranking in words [1] |
| --- | --- | --- | --- | --- | --- |
| O=C(O)CCC(=O)O [butanedioic acid] | dicarboxylic acid-dependent increases in tetracycline resistance | 1.5 to 4 | over 1.2 OD600 units | grew under all butanedioic acid concentrations tested | – |
| O=C(O)CCCCCC(=O)O [heptanedioic acid] | dicarboxylic acid-dependent increases in tetracycline resistance | 0.5 to 6 | – | – | highest dynamic range |
| O=C(O)CCCCC(=O)O [hexanedioic acid] | dicarboxylic acid-dependent increases in tetracycline resistance | 0.25 to 6 | – | – | highest dynamic range |
| O=C(O)CCCC(=O)O [pentanedioic acid] | dicarboxylic acid-dependent increases in tetracycline resistance | 1 to 2.5 | – | – | – |
